Earlier results as cited in patent US6147189A, “Polypeptides that include conformation-constraining groups which flank a protein-protein interaction site” (Virginia Commonwealth University, priority 1997, dated 2000).
Where a SMILES comes first, the peptide text is derived from it.

Tested on: receptors of sweet tasting papillae
Details: comparison value

COC(=O)[C@H](Cc1ccccc1)NC(=O)[C@@H](N)CC(=O)O [aspartame] (H-Asp-Phe-OMe)
Sweetness compared with sugar: 160 times sweeter than sugar
